The text below walks through data of patent US8283337B2, “Therapeutic or prophylactic agent for vasoconstriction” (Next21 K.K., priority 2007, dated 2012).

In assay [1] the test system is rat macrophage-like cells (RAW264.7). Put plainly: Vasospastic cell model, PGE2/PGD2 production by ELISA after erythrocyte lysis solution. To be noted: blood pretreated with 10 wt % sugar, medium 5 wt % sugar, lysis solution 18 hours. Type of assay: cell-based. On the procedure:
A vasospastic cell model was constructed by using […] macrophage-like cells (RAW264.7) for study on whether trehalose has anti-inflammatory action.
Physiological saline (Sal), 10 wt % trehalose (Tre) and 10 wt % maltose (Mal) were added respectively to the blood collected from a rat (10 to 12 weeks of age, male) for pretreatment, and the mixture was processed in an ultrasonic homogenizer, to prepare an erythrocyte lysis solution. 1×10^6 or 2×10^6 of RAW264.7 cells were inoculated on a plate on the day before addition of the lysis solution, and were cultured in a medium comprising physiological saline, 5 wt % trehalose and 5 wt % maltose (respectively, as abbreviated to Sal, Tre and Mal) placed in an incubator (37° C., CO2: 5%). The culture medium used was Dulbecco's Modified Eagle Medium (D-MEM) comprising 10% fetal bovine serum (FBS), penicillin and streptomycin. The next day, the lysis solution was added in an amount of 1/10 of the medium, and the mixture was incubated in the incubator (37° C., CO2: 5%) for 18 hours. Then, the cells were washed with PBS; new medium was added; and the mixture was placed in the incubator (37° C., CO2: 5%). The medium was collected after one hour for ELISA analysis. The ELISA was carried out by using Prostaglandin E2 EIA kit-monoclonal (manufactured by Cayman) or Prostaglandin D2 EIA kit (manufactured by Cayman). […] For control, a lysis solution-untreated group (added respectively with physiological saline, trehalose and maltose) was also analyzed similarly (FIG. 8, FIG. 9: right column 3). Three or more independent tests were carried out to obtain the average, and the standard deviation obtained was expressed with error bars.

Assay [2] relates to normal human umbilical vein endothelial cells (HUVEC). Put plainly: Vasospastic cell model, PGE2 production by ELISA after erythrocyte lysis solution. Type of assay: cell-based. To be noted: lysis solution from blood pretreated with 10 wt % sugar, 6 hours. On the procedure: A vasospastic cell model was constructed by using normal human umbilical vein endothelial cells (HUVEC), for study on whether trehalose has anti-inflammatory action.
Physiological saline (Sal), 10 wt % trehalose (tre) and 10 wt % maltose (Mal) were added respectively to the bloods collected from a rat (10 to 12 weeks of age, male) for pretreatment, and the mixture was processed in an ultrasonic homogenizer, to prepare an erythrocyte lysis solution. The HUVEC cells were inoculated on a plate in an amount of 1×10^5 cells on the day before the addition of the lysis solution and were cultured in an incubator (37° C., CO2: 5%). The culture medium used was endothelial cell basic medium (EBM-2) comprising 2% fetalbovine serum (FBS), hEGF (human epidermal growth factor), heparin, hydrocortisone, ascorbic acid, VEGF (vascular endothelial growth factor), R3-IGF-1 (recombinant insulin-like growth factor-1), gentamicin and amphotericin-B. The next day, the lysis solution in an amount of 1/10 of the medium was added to the HUVEC cells, and the mixture was incubated in an incubator (37° C., CO2: 5%) for 6 hours. The medium was then collected for ELISA analysis. […] The lysis solution-untreated group (added respectively with physiological saline, trehalose and maltose) was also analyzed similarly as a control group (FIG. 10: right column 3). […]
In general terms: An ELISA detects its analyte on a solid surface through an enzyme-linked reagent.

For assay [3], the system named is cerebral vasospasm. Briefly: Rabbit subarachnoid hemorrhage model, intracerebral blood flow by perfusion-MRI. It counts as in vivo. As to conditions: group II, self blood + 15 wt % trehalose solution into cisterna magna, two days after second administration; blood + saline group approximately 60%. On the procedure:
Intracerebral blood flow was evaluated via perfusion-MRI method by using a rabbit subarachnoid hemorrhage model for analysis of the vasospasm-inhibiting action of trehalose.
After magnetic resonance imaging (MRI) of a NZW rabbit (14 weeks of age, approximately 3.0 kg, male) in the normal state, the occipital region was shaved and the cisterna magna was punctured, and blood samples [group I: self blood+physiological saline (blood+Sal), group II: self blood+15 wt % trehalose solution (blood+Tre) and group III: physiological saline (Sal)] were injected into different test animals respectively in an amount of 3 ml. Additionally, 2 ml of blood sample and physiological saline (total of 5 ml) were injected to the same test animals by a similar method, two days later. Two days after the second administration, the influence of trehalose on cerebral vasospasm was evaluated via perfusion-MRI method (cerebrovascular normality is calculated by injecting a contrast medium through otic vein into the brain and determining the degree of recovery in brightness quantitatively) by using a high-definition MRI apparatus for animals (4.7 tesla, resolution: 50 μm) manufactured by Varian. Three independent tests were carried out to obtain the average, and the standard deviation obtained was expressed with error bars.

Assay [4] has as its system femoral artery. Put plainly: Vasospasm model using rat femoral artery exposed to self blood. It counts as in vivo. To be noted: 7 days after exposure; for arterial sectional area relative to saline-exposed artery: SD rat femoral artery. An excerpt:
Twenty seven male SD rats of 10 weeks of age were divided into three groups randomly. These rats were properly anesthetized. The groin was cut open and then the femoral artery was divided and separated sufficiently from the surrounding soft tissue etc. The femoral artery was covered with a catheter. The catheter used was a 10 mm-length vinyl chloride cylindrical catheter. Self blood collected from femoral vein was fed into the space between the catheter and vascular adventitia and the bottom face of the cylinder was sealed with an adhesive agent. The adhesive agent used was a cyanoacrylate-based adhesive agent. The operations above were carried out aseptically and surgically. Then, the surgical injury was closed. The lumen of the blood-exposed femoral artery narrowed and the tunica intima and tunica media thickened, after peaking in about 7 days after exposure. This model is a model according to “Nakamura et al., Japan Neurosurgical Society, Abstract of 49th Annual Meeting 199, 1990”.
Left and right femoral arteries (FAs) of each rat were exposed to the substances shown in the following Table 1 by using the model above. 4% paraformaldehyde (PFA) solution was perfused, 7 days after commencement of exposure and each femoral artery was fixed and collected. The collected femoral artery (FA) was immersed in 4% PFA, and part of the femoral artery was immersed in sucrose solution and then embedded as frozen. A section of 5 μm in thickness was obtained with cryostat from the frozen femoral artery thus obtained. The section was subjected to hematoxylin-eosin staining (HE staining). The HE-stained sample was analyzed by using an image analyzer equipped with an image analysis program, and the sectional area of the lumen and the thickness of the tunica media in each tissue were determined. The radius of the blood vessel was determined from the peripheral length of the lumen of the blood vessel, and the lumen sectional area was calculated from it. In addition, the distance between the internal and external elastic layers was measured at four points, and the average thereof was determined, to obtain the thickness of the tunica media. There were cases when the blood vessel was cleaved or was not sufficiently fixed during analysis, and thus 6 samples, which were analyzed under favorable conditions, among 9 samples prepared in each group, were selected for collection of data.

Assay [5] concerns basilar artery. Briefly: Rabbit subarachnoid hemorrhage model, histological analysis of basilar artery. As to conditions: group II, self blood + 15 wt % trehalose solution. Type of assay: in vivo. On the procedure: The vasospasm-inhibiting action of trehalose was analyzed via a histological method by using a rabbit subarachnoid hemorrhage model.
After the occipital region of a NZW rabbit (14 weeks of age, approximately 3.0 kg, male) was shaved and the cisterna magna was punctured, blood samples [group I: self blood+physiological saline (blood+Sal), group II: self blood+15 wt % trehalose solution (blood+Tre) and group III: physiological saline (Sal)] were injected into different test animals respectively in an amount of 3 ml. Additionally, 2 ml of blood sample and physiological saline (total of 5 ml) were injected to the same test animal by a similar method, two days later. Two days after the second administration, the animals were perfused with 4% paraformaldehyde for stabilization, and the brain stem and the basilar arteries were collected. The tissue was embedded in paraffin, cut into a section of 5 μm in thickness, and observed after hematoxylin-eosin staining (HE staining) The results are shown in FIG. 12.

[6] abbreviates: two days after second administration.

In the case of `OC[C@H]1O[C@H](O[C@H]2[C@H](O)[C@@H](O)C(O)O[C@@H]2CO)[C@H](O)[C@@H](O)[C@@H]1O` (mixture of isomers) [maltose, reference compound], in assay [1], the “amount of PGD2 produced versus lysis solution-untreated control group” value is “inflammatory reaction was also induced” and the “amount of PGE2 produced versus lysis solution-untreated control group” value is “inflammatory reaction was also induced”. The “PGE2 production (induction of inflammatory reaction) versus lysis solution-untreated control group” value in assay [2] is given as “inflammatory reaction was induced”.

Regarding `OC[C@H]1O[C@H](O[C@H]2O[C@H](CO)[C@@H](O)[C@H](O)[C@H]2O)[C@H](O)[C@@H](O)[C@@H]1O` [trehalose], the “normality of cerebral blood vessel (brightness after treatment/before treatment), physiological saline group = 100%” value in assay [3] was “approximately 80%”. In addition, the “arterial sectional area relative to saline-exposed artery” value in assay [4] (group II, trehalose 3.75 wt % (blood:15% TL solution = 3:1)) is given as 86%. Moreover, the “tunica media thickness (after exposure to blood + trehalose / after exposure to physiological saline)” value in assay [4] (group II, trehalose 3.75 wt %) worked out at 0.93 times. For the same compound, the “arterial sectional area relative to saline-exposed artery” value in assay [4] (group III, trehalose 7.5 wt % (blood:30% TL solution = 3:1)) came out at 39%. Also, the “tunica media thickness (after exposure to blood + trehalose / after exposure to physiological saline)” value in assay [4] (group III, trehalose 7.5 wt %) stood at 1.74 times. In addition, in assay [1], the “amount of PGD2 produced versus lysis solution-untreated control group” value is reported as “not increased” and the “amount of PGE2 produced versus lysis solution-untreated control group” value is listed as “not increased”. Besides, the “PGE2 production (induction of inflammatory reaction) versus lysis solution-untreated control group” value in assay [2] is given as “induction of inflammatory reaction was suppressed”. Besides, the “vasospasm with respect to group I (self blood + physiological saline)” value in assay [5] (basilar artery histology) is given as “suppressed definitely”. In assay [5] (setting [6]), the “blood vessel diameter of basilar artery (HE staining)” value is listed as “no reduction of the blood vessel diameter” and the “tunica media thickness of basilar artery (HE staining)” value is “some increase in tunica media thickness”.
